This is an account of results in patent US10124004B2, “Pyrido[3,4-d]pyrimidine derivative and pharmaceutically acceptable salt thereof” (Teijin Pharma Limited, priority 2015, dated 2018).

The target in experiment [1] is T1, CDK4/cyclin D3 (Homo sapiens, UniProt P11802).
T1 construct: purchased Carna Biosciences, Inc. QS S Assist CDK4/Cyclin D3_FP Kit
In words: Human CDK4/cyclin D3 inhibitory activity (QS S Assist CDK4/Cyclin D3_FP Kit, IMAP fluorescence polarization). In kind it is biochemical. Particulars: 50% inhibitory concentration against CDK4/cyclin D3, given as class symbol. In short, it runs like this: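 Percent inhibition, relative to DMSO with and without enzyme, was curve-fitted to give IC50 from polarization (ex 485, em 535 nm). The 45-min room-temperature reaction used 12.5-25 ng/well enzyme, kit ATP/substrate/metal mix, and HEPES pH 7.4 buffer with Tween20 and DTT, followed by 30-min IMAP binding in the dark.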
In general terms: In fluorescence polarisation assays a small probe gives low polarisation when free and higher when bound to something large.

Experiment [2] has as its target T2, CDK2/cyclin A2 (Homo sapiens, UniProt P24941).
T2 construct: purchased Carna Biosciences, Inc. QS S Assist CDK2/Cyclin A2_FP Kit
Kind of experiment: Human CDK2/cyclin A2 inhibitory activity (QS S Assist CDK2/Cyclin A2_FP Kit, IMAP fluorescence polarization). Particulars: 50% inhibitory concentration against CDK2/cyclin A2, given as class symbol. The experiment is classed as biochemical. The method in brief: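 Kinase activity read as fluorescence polarization (485/535 nm) after phosphorylated fluorescent substrate binds IMAP reagent (30 min, RT, dark). Enzyme (2.5 ng/well) reacted 60 min at RT with ATP/substrate/metal in HEPES pH 7.4 buffer with Tween 20 and DTT; no-enzyme wells define 0% activity; IC50 by curve fit.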

T1 sequence (P11802 whole entry): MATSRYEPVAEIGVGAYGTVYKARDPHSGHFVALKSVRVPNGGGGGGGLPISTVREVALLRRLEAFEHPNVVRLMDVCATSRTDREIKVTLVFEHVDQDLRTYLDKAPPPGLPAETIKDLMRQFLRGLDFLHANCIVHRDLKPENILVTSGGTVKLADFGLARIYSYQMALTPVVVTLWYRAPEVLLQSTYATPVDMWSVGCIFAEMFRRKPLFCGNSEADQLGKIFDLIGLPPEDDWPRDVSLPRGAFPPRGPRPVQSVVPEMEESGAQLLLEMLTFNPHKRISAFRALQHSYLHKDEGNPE
T1 sequence (P30281 whole entry partner): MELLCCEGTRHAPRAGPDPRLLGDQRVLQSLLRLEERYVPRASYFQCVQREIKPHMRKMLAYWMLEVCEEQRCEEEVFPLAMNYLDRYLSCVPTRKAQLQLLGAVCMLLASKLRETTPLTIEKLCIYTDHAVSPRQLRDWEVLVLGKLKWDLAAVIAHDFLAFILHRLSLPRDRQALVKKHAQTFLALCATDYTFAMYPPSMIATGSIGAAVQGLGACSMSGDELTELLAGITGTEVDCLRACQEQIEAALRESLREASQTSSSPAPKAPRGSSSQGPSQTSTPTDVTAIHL

By IC50 is commonly meant the concentration that inhibits the measured activity by half. As for `Cc1nc(Nc2ncc3cc([C@@H](C)O)nc(NC4CCC4)c3n2)ccc1N1CCNCC1` [Compound 1094], the results for the IC50 in experiment [1] and in experiment [2] were less than 0.01 µM and not below 0.1 µM, respectively.
As to `Cc1nc(Nc2ncc3cc([C@@H](C)O)nc(NCC4CC4)c3n2)ccc1N1CCNCC1` [Compound 1095], the IC50 is less than 0.01 µM in experiment [1] and not below 0.1 µM in experiment [2].
For `CCNc1nc(C(F)F)cc2cnc(Nc3ccc(CN4CCC(C(=O)O)CC4)cn3)nc12` [Compound 1096] the same measures were 0.01 to 0.1 µM and not below 0.1 µM.
In the same order, the values of `CCCNc1nc(C(F)F)cc2cnc(Nc3ccc(CN4CCC(C(=O)O)CC4)cn3)nc12` [Compound 1097] are 0.01 to 0.1 µM and not below 0.1 µM.
For the compound `CC(C)CNc1nc(C(F)F)cc2cnc(Nc3ccc(CN4CCC(C(=O)O)CC4)cn3)nc12` [Compound 1098], the IC50 is 0.01 to 0.1 µM in experiment [1] and not below 0.1 µM in experiment [2].
In the same order, the values of `O=C(O)C1CCN(Cc2ccc(Nc3ncc4cc(C(F)F)nc(NC5CCC5)c4n3)nc2)CC1` [Compound 1099] are less than 0.01 µM and not below 0.1 µM.
As to `O=C(O)C1CCN(Cc2ccc(Nc3ncc4cc(C(F)F)nc(NCC5CC5)c4n3)nc2)CC1` [Compound 1100], the IC50 in experiment [1] was 0.01 to 0.1 µM; in experiment [2], not below 0.1 µM.
For `C[C@@H](O)c1cc2cnc(Nc3ccc(N4CCN(C)CC4)nn3)nc2c(NC(C)(C)CO)n1` [Compound 1101] the same measures were less than 0.01 µM and not below 0.1 µM.
For the compound `CCCNc1nc([C@@H](C)O)cc2cnc(Nc3ccc(N4CCN(C)CC4)nn3)nc12` [Compound 1102], the IC50 in experiment [1] was less than 0.01 µM; in experiment [2], not below 0.1 µM.
In the same order, the values of `CCNc1nc([C@@H](C)O)cc2cnc(Nc3ccc(CN4CCN(C)CC4)cn3)nc12` [Compound 1103] are less than 0.01 µM and not below 0.1 µM.
In the same order, the values of `CCCNc1nc([C@@H](C)O)cc2cnc(Nc3ccc(CN4CCN(C)CC4)cn3)nc12` [Compound 1104] are less than 0.01 µM and not below 0.1 µM.
On to `COC[C@@H](C)Nc1nc([C@@H](C)O)cc2cnc(Nc3ccc(CN4CCN(C)CC4)cn3)nc12` [Compound 1105], for which the IC50 in experiment [1] is less than 0.01 µM; in experiment [2] it was not below 0.1 µM.
In the same order, the values of `C[C@@H](O)c1cc2cnc(Nc3ccc(CN4CCN(C)CC4)cn3)nc2c(NC(C)(C)CO)n1` [Compound 1106] are less than 0.01 µM and not below 0.1 µM.
Consider `CCNc1nc(C2(C)COC2)cc2cnc(Nc3ccc(CN4CCNCC4)cn3)nc12` [Compound 1107], for which the figures for the concentration for half-maximal inhibition (IC50) in experiment [1] and in experiment [2] were less than 0.01 µM and not below 0.1 µM, respectively.
In the same order, the values of `CC1(c2cc3cnc(Nc4ccc(CN5CCNCC5)cn4)nc3c(NC3CCC3)n2)COC1` [Compound 1108] are less than 0.01 µM and not below 0.1 µM.
Regarding `CC1(c2cc3cnc(Nc4ccc(CN5CCNCC5)cn4)nc3c(NCC3CC3)n2)COC1` [Compound 1109], the IC50 in experiment [1] is less than 0.01 µM; in experiment [2] it was not below 0.1 µM.
Turning to `CC1(c2cc3cnc(Nc4ccc(CN5CCNCC5)cn4)nc3c(NCC3CC(F)(F)C3)n2)COC1` [Compound 1110], the IC50 in experiment [1] was less than 0.01 µM; in experiment [2], not below 0.1 µM.
For `CCCNc1nc([C@@H](C)OC)cc2cnc(Nc3ccc4c(n3)CCN(C(=O)CO)C4)nc12` [Compound 1111] the same measures were 0.01 to 0.1 µM and not below 0.1 µM.
In the case of `CCNc1nc([C@@H](C)OC)cc2cnc(Nc3ccc4c(n3)CCN(C(=O)CO)C4)nc12` [Compound 1112], the half-inhibitory concentration (IC50) is 0.01 to 0.1 µM in experiment [1] and not below 0.1 µM in experiment [2].
As for `CO[C@H](C)c1cc2cnc(Nc3ccc4c(n3)CCN(C(=O)CO)C4)nc2c(N[C@H]2CCCOC2)n1` [Compound 1113], the IC50 in experiment [1] was 0.01 to 0.1 µM; in experiment [2] it was not below 0.1 µM.
With `O=C(CO)N1CCc2nc(Nc3ncc4cc(C5CCOC5)nc(N[C@H]5CCCOC5)c4n3)ccc2C1` (some centres unmarked) [Compound 1114], the results for the IC50 in experiment [1] and in experiment [2] were less than 0.01 µM and not below 0.1 µM, respectively.
With `CC1(c2cc3cnc(Nc4ccc5c(n4)CCN(C(=O)CO)C5)nc3c(N[C@H]3CCCOC3)n2)COC1` [Compound 1115], the IC50 is less than 0.01 µM in experiment [1] and not below 0.1 µM in experiment [2].
